Laboratory results as given in patent US20230355708A1 (priority 2020, published 2023).
*1 amine or outer side, *2 acyl side, *3 side chain or, on linkers, in order; H or OH if unused. Where a SMILES comes first, the peptide text is derived from it. Bridges are numbered along the chain shown (N, C = ends). [ ]: non-standard residue; d: D form. X1 = Cc1ccc(-c2ccc(-c3cn([C@H]4C[C@@H](C(=O)[*:2])N([*:1])C4)nn3)cc2)s1

Assays:
Fully-infected HIVNL4.3 = conditions: read-out: Fully-infected HIVNL4.3 IC50
HIVJRFL = conditions: read-out: HIVJRFL IC50
HIV-1 = type: in vivo; conditions: animal model
HIVBal.01 = conditions: read-out: HIVBal.01 IC50
clade_AE envelope = type: binding, HIV-1
SARS-CoV-1 pseudoviruses [1] = type: cell-based
SARS-CoV-2 pseudoviruses [2] = type: cell-based
SARS-CoV-1 pseudoviruses [3] = test system: SARS-CoV-1 pseudoviruses
SARS-CoV-1 pseudoviruses [4] = type: cell-based; remark: listed apart in the source
SARS-CoV-2 pseudoviruses [5] = type: cell-based; remark: listed apart in the source
[6] = target: SARS-CoV-2 spike S2 subunit (Severe acute respiratory syndrome coronavirus 2, UniProt P0DTC2)
SARS-CoV-2 pseudoviruses [7] = test system: SARS-CoV-2 pseudoviruses

| Compound | IC50 (Fully-infected HIVNL4.3) [nM] | IC50 (HIVJRFL) [nM] | HIV-1 viral load normalized to Hu CD4+ T cell counts (HIV-1) | IC50 (HIVBal.01) [nM] | binding to clade_AE envelope (clade_AE envelope) | inhibition of SARS-CoV-1 pseudovirus infection (SARS-CoV-1 pseudoviruses [1]) | irreversible inactivation of SARS-CoV-2 (SARS-CoV-2 pseudoviruses [2]) | virolysis of SARS-CoV-1 pseudoviruses (SARS-CoV-1 pseudoviruses [3]) | irreversible inactivation of SARS-CoV-1 (SARS-CoV-1 pseudoviruses [4]) | inhibition of SARS-CoV-2 pseudovirus infection (SARS-CoV-2 pseudoviruses [5]) | stoichiometry of binding, S2 versus S1 [6] | virolysis of SARS-CoV-2 pseudoviruses (SARS-CoV-2 pseudoviruses [7]) |
| --- | --- | --- | --- | --- | --- | --- | --- | --- | --- | --- | --- | --- |
| CC[C@H](C)[C@@H]1NC(=O)[C@H](CC(N)=O)NC(=O)[C@@H](N)CC(=O)NCCCC[C@@H](C(N)=O)NC(=O)[C@H](Cc2c[nH]c3ccccc23)NC(=O)[C@@H]2C[C@H](n3cc(-c4ccc(-c5ccc(C)s5)cc4)nn3)CN2C1=O [AAR029N2, (3S,6S,14S,17S,20S,24S,25aS)-3-((1H-indol-3-yl)methyl)-14-amino-17-(2-amino-2-oxoethyl)-20-((S)-sec-butyl)-24-(4-(4-(5-methylthiophen-2-yl)phenyl)-1H-1,2,3-triazol-1-yl)-1,4,12,15,18,21-hexaoxotetracosahydro-1H-pyrrolo[2,1-f][1,4,7,10,13,18]hexaazacyclotricosine-6-carboxamide] (H-DNI[X1]WK-NH2; lactam 1-6) | ~180 | ~112 | significant efficacy in an animal model | ~100 | binds clade_AE envelope |  |  |  |  |  |  |  |
| GRFT: lectin Griffithsin, SEQ ID NO:2 |  |  |  |  |  | reduced inhibition of infection | partial irreversible inactivation | does not causes significant virolysis | partial irreversible inactivation | reduced inhibition of infection | higher for the S2 subunit as compared to the S1 subunit | does not causes significant virolysis |
